Results on three compounds are retold here after patent publication US9689017B2, “Method of semi-solid state fermentation for producing surfactin from a mutant strain of Bacillus subtilis subsp” (priority 2014, dated 2017).

Assay [1] deals with Vibrio salmonicida. The assay is described as follows: Antimicrobial test for surfactin (MIC, 96-well broth dilution). The following applies: 16 hrs at 37° C., read-out: minimum inhibitory concentration (MIC). The class given is cell-based. Here is the method: (§1) Escherichia coli DH5α, Vibrio harveyi, Vibrio alginolyticus, Vibrio anguillarum, Vibrio salmonicida, Aeromonas hydrophila and Staphylococcus epidermidis are separately inoculate onto LBA (E. coli DH5α) or TSA (+1.5% NaCl) and incubate at 37° C. for 16 hrs. Scrap off and dissolve the colonies in designated medium. When OD540 is at 1 (the concentration is around 1×10^9 colonies/c.c.), take 500 μl of the bacterial culture and add to 500 μl of LB or TSB (+1.5% NaCl) to make the bacterial concentration at […]; add 130 μl of the bacterial culture to each well of a 96-well plate, the concentration of bacterial culture is 1×10^4.5 colonies/c.c., before addition of 20 μl of chemically synthesized antimicrobial peptides at various concentrations. After 16 hrs of incubation at 37° C., the bacterial culture that is clear indicates the lowest concentration of the antimicrobial peptide, that is, minimum inhibitory concentration (MIC).
Background: Dilution methods test growth across graded concentrations, often in twofold steps.

Assay [2] has as its system Aeromonas hydrophila. The assay is described as above. Type of assay: cell-based. The conditions noted are these: 16 hrs at 37° C., read-out: minimum inhibitory concentration (MIC). On the procedure:
as §1

The test system of assay [3] is Staphylococcus epidermidis. The description is as above. Type of assay: cell-based. The following applies: 16 hrs at 37° C., read-out: minimum inhibitory concentration (MIC). On the procedure: as §1
Assay [4] deals with Vibrio anguillarum. The assay is described as above. Type of assay: cell-based. The conditions noted are these: 16 hrs at 37° C., read-out: minimum inhibitory concentration (MIC). Here is the method:
as §1

Assay [5] relates to Escherichia coli DH5α. The description is as above. Type of assay: cell-based. The conditions noted are these: 16 h, E. coli, 16 hrs at 37° C., read-out: minimum inhibitory concentration (MIC). Here is the method:
as §1

Assay [6] has as its system Vibrio alginolyticus. The assay is described as above. The following applies: 16 hrs at 37° C., read-out: minimum inhibitory concentration (MIC). Type of assay: cell-based. Here is the method:
as §1

Assay [7] deals with Vibrio harveyi. Described as above. The class given is cell-based. The following applies: 16 hrs at 37° C., read-out: minimum inhibitory concentration (MIC). Here is the method: as §1
Assay [8] is described as follows: Antimicrobial test for surfactin, summary statement over the tested bacteria. The class given is cell-based. The conditions noted are these: text summary of Table 2, all tested bacteria; read-out: minimum inhibitory concentration (MIC). Here is the method:
as §1

The conditions of assay [9]: literature value, test organism not given; cited from earlier work.

In brackets after ≈: the same amount, converted by molar mass. Where two headings read alike, the source gives them in different places. Starred links: 1 amine or outer side, 2 acyl side, 3 side chain; linkers in the order of their positions; H or OH if unused. Positions of bridges follow the written chain, without caps; N, C: chain ends. Non-standard residues stand in square brackets, D forms with d. Residues, ends and D or L forms follow the SMILES beside them. X1 = CC(C)CCCCCCCCC[C@H](CC(=O)[*:1])O[*:2]

With `CC(C)CCCCCCCCC[C@@H]1CC(=O)N[C@@H](CCC(=O)O)C(=O)N[C@@H](CC(C)C)C(=O)N[C@H](CC(C)C)C(=O)N[C@@H](C(C)C)C(=O)N[C@@H](CC(=O)O)C(=O)N[C@H](CC(C)C)C(=O)N[C@@H](CC(C)C)C(=O)O1` [Bacillus subtilis subsp. ATCC21332, surfactin] (EL[dL]VD[dL]L; linker N-C via X1), the MIC in [1] (Aliivibrio salmonicida, 16 h) is 129 µM (≈ 133 µg/mL); in assay [2] (Aeromonas hydrophila, 16 h), 129 µM (≈ 133 µg/mL); in assay [3] (16 h), 129 µM (≈ 133 µg/mL); in [4] (Vibrio anguillarum, 16 h), 129 µM (≈ 133 µg/mL); in assay [5] it was 193 µM (≈ 200 µg/mL); in assay [6] (16 h), 129 µM (≈ 133 µg/mL). Moreover, the MIC in assay [7] (16 h) worked out at 129 µM (≈ 133 µg/mL).

As for `CC(C)CCCCCCCCC[C@@H]1CC(=O)N[C@@H](CCC(=O)O)C(=O)N[C@@H](CC(C)C)C(=O)N[C@H](CC(C)C)C(=O)N[C@@H](C(C)C)C(=O)N[C@@H](CC(=O)O)C(=O)N[C@H](CC(C)C)C(=O)N[C@@H](CC(C)C)C(=O)O1` [High-yield mutant strain, surfactin] (EL[dL]VD[dL]L; linker N-C via X1), the MIC in [8], in assay [1], in [2], in assay [3], in assay [4] and in [6] was 96.5 µM (≈ 100 µg/mL) in each case. Further, the MIC in assay [7] came to 96.5 µM (≈ 100 µg/mL).

Consider `CC(C)CCCCCCCCC[C@@H]1CC(=O)N[C@@H](CCC(=O)O)C(=O)N[C@@H](CC(C)C)C(=O)N[C@H](CC(C)C)C(=O)N[C@@H](C(C)C)C(=O)N[C@@H](CC(=O)O)C(=O)N[C@H](CC(C)C)C(=O)N[C@@H](CC(C)C)C(=O)O1` [surfactin] (EL[dL]VD[dL]L; linker N-C via X1), for which the “minimum inhibitory concentration (MIC)” value in assay [9] was 50 µg/mL (≈ 48.2 µM).
